# Data: ChEMBL document CHEMBL1177798, “Interaction of aminoadamantane derivatives with the influenza A virus M2 channel-docking using a pore blocking model” (Bioorg Med Chem Lett, 2010)
# Molecular target: Matrix protein 2 (Influenza A virus, UniProt P06821)
# Test: Binding affinity to Influenza A Weybridge(H7N7) virus Matrix protein 2 by spectrophotometry; call rule not given here
# Set-up: species or system Influenza A virus (A/chicken/FPV/Weybridge(H7N7))
# Matrix protein 2, sequence (P06821 whole entry): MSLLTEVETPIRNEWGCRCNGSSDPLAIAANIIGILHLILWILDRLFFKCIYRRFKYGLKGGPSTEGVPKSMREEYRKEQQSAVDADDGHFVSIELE
structure (smiles),measurement,value
NC1CCCC1 [CYCLOPENTANAMINE],Kd,Not Active
